This passage reports Ki, Emax and EC50 results from patent publication US20230265151A1, “GIP/GLP1 CO-AGONIST COMPOUNDS” (priority 2020, published 2023).

The structures appear in SMILES notation. Where two headings read alike, the source gives them in different places.

In experiment [1] the target is T1, human Gcg receptor (hGcgR) (Homo sapiens, UniProt P47871).
T1 construct: expressed in transfected cells; crude membranes
The experiment in a line: [125I]-Glucagon binding, SPA with membranes of HEK293 cells expressing hGcgR. The note with it: human GcgR; geometric mean (SEM, n); read-out: Binding Affinity Ki, nM (SEM, n) hGCGR.

For experiment [2], the target named is T2, human GIP receptor (hGIPR) (Homo sapiens, UniProt P48546).
T2 construct: expressed in transfected cells; crude membranes
T2 sequence (P48546 22-466): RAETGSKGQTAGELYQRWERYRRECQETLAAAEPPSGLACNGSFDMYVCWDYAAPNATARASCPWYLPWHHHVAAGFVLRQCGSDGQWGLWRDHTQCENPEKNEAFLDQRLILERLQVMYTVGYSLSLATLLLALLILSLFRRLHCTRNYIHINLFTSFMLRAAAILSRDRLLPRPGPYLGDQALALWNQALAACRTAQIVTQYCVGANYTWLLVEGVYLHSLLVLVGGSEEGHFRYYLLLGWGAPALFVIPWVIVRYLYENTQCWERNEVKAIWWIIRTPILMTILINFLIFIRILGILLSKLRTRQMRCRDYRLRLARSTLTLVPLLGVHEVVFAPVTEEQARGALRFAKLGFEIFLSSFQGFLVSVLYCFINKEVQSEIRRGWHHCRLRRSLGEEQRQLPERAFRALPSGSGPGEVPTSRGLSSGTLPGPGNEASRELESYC
The experiment in a line: [125I]-GIP binding, SPA with membranes of CHO cells expressing hGIPR. The note with it: human GIPR; geometric mean (SEM, n); read-out: Binding Affinity Ki, nM (SEM, n) hGIPR.

A further experiment concerns the target T3, hGIPR (Homo sapiens, UniProt P48546).
T3 construct: expressed in transfected cells
T3 sequence (P48546 22-466): T2 sequence (P48546 22-466)
The experiment in a line: Functional cAMP formation (HTRF) in HEK-293 clonal cells expressing hGIPR, 0.1% bovine casein, without or with 1.0% human serum albumin. The format is cell-based. The conditions noted are these: for Emax: read-out: hGIPR Emax, % ± SEM; for EC50: read-out: hGIPR EC50, nM (SEM, n). Summed up:
(§1)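 Cells were stimulated with peptide for 30 min at 37° C, then lysed in buffer carrying cAMP-d2 and anti-cAMP Eu3+-cryptate for a competitive HTRF read after at least 60 min at room temperature. The 665/620 nm ratio was converted to nM cAMP against a standard curve.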
(Cyclic AMP is a second messenger, typically raised through Gs and lowered through Gi signalling.)

For the next experiment, the target named is T4, hGCGR (Homo sapiens, UniProt P47871).
T4 construct: expressed in transfected cells
T4 sequence (P47871 26-477): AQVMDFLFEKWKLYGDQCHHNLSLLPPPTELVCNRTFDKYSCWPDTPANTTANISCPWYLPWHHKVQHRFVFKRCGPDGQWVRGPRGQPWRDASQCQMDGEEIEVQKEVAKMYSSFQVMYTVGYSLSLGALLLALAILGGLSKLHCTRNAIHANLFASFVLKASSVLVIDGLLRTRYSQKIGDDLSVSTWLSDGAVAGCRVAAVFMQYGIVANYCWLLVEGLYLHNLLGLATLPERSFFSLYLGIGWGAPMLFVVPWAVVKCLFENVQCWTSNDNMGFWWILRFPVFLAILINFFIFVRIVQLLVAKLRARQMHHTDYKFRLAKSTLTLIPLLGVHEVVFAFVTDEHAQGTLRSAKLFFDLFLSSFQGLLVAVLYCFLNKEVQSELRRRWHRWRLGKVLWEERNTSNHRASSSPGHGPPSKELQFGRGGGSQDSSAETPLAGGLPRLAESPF
Description: Functional cAMP formation (HTRF) in HEK-293 clonal cells expressing hGCGR, 0.1% bovine casein, without or with 1.0% human serum albumin. The class given is cell-based. The note with it: read-out: hGCGR EC50, nM (SEM, n). Put shortly:
as §1

The next experiment deals with hGLP-1R (Homo sapiens, UniProt P43220). Description: Functional cAMP formation (HTRF) in HEK-293 clonal cells expressing hGLP-1R, 0.1% bovine casein, without or with 1.0% human serum albumin. The format is cell-based. On the set-up: expressed in transfected cells. The note with it: for EC50: read-out: hGLP-1R EC50, nM (SEM, n); for Emax: read-out: hGLP-1R Emax, % ± SEM. Put shortly:
as §1

The mark [3] stands for this setting: HEK293, 0.1% bovine casein and 1.0% human serum albumin, 37° C., percent of maximal response to GIP(1-42)NH2.
Setting [4] is: HEK293, percent of maximal response to GIP(1-42)NH2, 37° C., 0.1% bovine casein, arithmetic mean.
Setting [5] is: cAMP, incubated at 37° C., 0.1% bovine casein (no human serum albumin), geometric mean.
[6] abbreviates: 0.1% bovine casein and 1.0% human serum albumin, 37° C., geometric mean.
The mark [7] stands for this setting: HEK293, 0.1% bovine casein and 1.0% human serum albumin, 37° C., percent of maximal response to GLP-1(7-36)NH2.
Setting [8] is: HEK293, percent of maximal response to GLP-1(7-36)NH2, 37° C., 0.1% bovine casein, arithmetic mean.
Setting [9] is: cAMP, 37° C., 0.1% bovine casein (no human serum albumin), geometric mean.
Where [10] appears, read: cAMP, 37° C., 0.1% bovine casein and 1.0% human serum albumin, geometric mean (SEM, n).

T1 sequence (P47871 26-477): as above
hGLP-1R, sequence (P43220 24-463): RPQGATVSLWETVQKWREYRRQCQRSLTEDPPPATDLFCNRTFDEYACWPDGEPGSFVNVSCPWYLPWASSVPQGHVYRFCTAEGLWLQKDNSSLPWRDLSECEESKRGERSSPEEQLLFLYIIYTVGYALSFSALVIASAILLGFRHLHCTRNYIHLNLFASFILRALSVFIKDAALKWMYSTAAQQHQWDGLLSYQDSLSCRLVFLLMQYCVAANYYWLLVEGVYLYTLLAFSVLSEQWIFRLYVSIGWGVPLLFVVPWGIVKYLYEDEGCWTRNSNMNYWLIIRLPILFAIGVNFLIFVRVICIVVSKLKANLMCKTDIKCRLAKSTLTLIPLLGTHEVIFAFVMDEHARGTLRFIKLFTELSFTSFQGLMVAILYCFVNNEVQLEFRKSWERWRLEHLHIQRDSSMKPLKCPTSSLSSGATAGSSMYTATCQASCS

In the case of `CC[C@H](C)[C@H](NC(=O)[C@H](CC(C)C)NC(=O)[C@](C)(Cc1ccc(O)cc1)NC(=O)[C@@H](CCC(=O)O)NC(=O)[C@@H](NC(=O)[C@H](Cc1cccc(F)c1)NC(=O)[C@H](CCC(=O)O)NC(=O)C(C)(C)NC(=O)[C@H](CCC(N)=O)NC(=O)[C@H](C)NC(=O)[C@H](CCCCNC(=O)COCCOCCNC(=O)COCCOCCNC(=O)CC[C@H](NC(=O)CCCCCCCCCCCCC(=O)O)C(=O)O)NC(=O)[C@H](CCCN)NC(=O)[C@H](CC(=O)O)NC(=O)[C@H](CC(C)C)NC(=O)[C@](C)(CC(C)C)NC(=O)[C@@H](NC(=O)[C@H](CO)NC(=O)[C@H](Cc1ccncc1)NC(=O)[C@H](CC(=O)O)NC(=O)[C@H](CO)NC(=O)[C@@H](NC(=O)[C@](C)(Cc1ccccc1F)NC(=O)[C@@H](NC(=O)CNC(=O)[C@H](CCC(=O)O)NC(=O)C(C)(C)NC(=O)[C@@H](N)Cc1ccc(O)cc1)[C@@H](C)O)[C@@H](C)O)[C@@H](C)CC)[C@@H](C)CC)C(=O)N[C@@H](CCC(=O)O)C(=O)NCC(=O)NCC(=O)N[C@@H](CCCCNC(=O)COCCOCCNC(=O)COCCOCCNC(=O)CC[C@H](NC(=O)CCCCCCCCCCCCC(=O)O)C(=O)O)C(=O)N[C@@H](CO)C(=O)N[C@@H](CO)C(=O)NCC(=O)N[C@@H](C)C(=O)N1CCC[C@H]1C(=O)N1CCC[C@H]1C(=O)N1CCC[C@H]1C(=O)N[C@@H](CO)C(N)=O` [Example 64], the Ki in experiment [1] is above 4780 nM; in experiment [2], 0.161 nM. The Emax stood at 90.5 ± 3.44% at hGIPR (setting [3]), 92.9 ± 3.06% on hGIPR (setting [4]), 87.8 ± 0.301% on hGLP-1R (setting [7]) and 97.3 ± 4.13% at hGLP-1R (setting [8]). Besides, the EC50 at hGIPR (setting [5]) was 0.0158 nM; on hGCGR (setting [6]), above 9950 nM; at hGCGR (setting [5]), above 9950 nM; on hGLP-1R (setting [6]), 27 nM; on hGLP-1R (setting [5]) it was 0.557 nM.
In the case of `CC[C@H](C)[C@H](NC(=O)[C@H](CC(C)C)NC(=O)[C@](C)(Cc1ccc(O)cc1)NC(=O)[C@@H](CCC(=O)O)NC(=O)[C@@H](NC(=O)[C@H](Cc1ccccc1)NC(=O)[C@H](CCCCNC(=O)COCCOCCNC(=O)COCCOCCNC(=O)CC[C@H](NC(=O)CCCCCCCCCCCCC(=O)O)C(=O)O)NC(=O)C(C)(C)NC(=O)[C@H](CCC(N)=O)NC(=O)[C@H](C)NC(=O)[C@H](CCC(N)=O)NC(=O)[C@H](CCCN)NC(=O)[C@H](CC(=O)O)NC(=O)[C@H](CC(C)C)NC(=O)[C@](C)(CC(C)C)NC(=O)[C@@H](NC(=O)C(C)(C)NC(=O)[C@H](Cc1ccncc1)NC(=O)[C@H](CC(=O)O)NC(=O)[C@H](CO)NC(=O)[C@@H](NC(=O)[C@](C)(Cc1ccccc1F)NC(=O)[C@@H](NC(=O)CNC(=O)[C@H](CCC(=O)O)NC(=O)C(C)(C)NC(=O)[C@@H](N)Cc1ccc(O)cc1)[C@@H](C)O)[C@@H](C)O)[C@@H](C)CC)[C@@H](C)CC)C(=O)N[C@@H](CCCCNC(=O)COCCOCCNC(=O)COCCOCCNC(=O)CC[C@H](NC(=O)CCCCCCCCCCCCC(=O)O)C(=O)O)C(=O)NCC(=O)NCC(=O)N1CCC[C@H]1C(=O)N[C@@H](CO)C(=O)N[C@@H](CO)C(=O)NCC(=O)N[C@@H](C)C(=O)N1CCC[C@H]1C(=O)N1CCC[C@H]1C(=O)N1CCC[C@H]1C(=O)N[C@@H](CO)C(N)=O` [Example 488], the Ki is above 958 nM in experiment [1] and 0.064 nM in experiment [2]. For the same compound, the Emax was found to be 85.5% at hGIPR (HEK293, cAMP, 37° C., 0.1% bovine casein and 1.0% human serum albumin, percent of maximal response to GIP(1-42)NH2); 113% at hGLP-1R (HEK293, cAMP, 37° C., 0.1% bovine casein, percent of maximal response to GLP-1(7-36)NH2, arithmetic mean). Further, the EC50 at hGIPR (setting [9]) was 0.0115 nM; on hGIPR (setting [10]), 0.718 nM; at hGCGR (setting [9]) it was above 10100 nM; on hGCGR (setting [10]), above 9950 nM; on hGLP-1R (setting [9]) it was 0.207 nM; at hGLP-1R (setting [10]) it was 13 nM.
In the case of `CC[C@H](C)[C@H](NC(=O)[C@H](CC(C)C)NC(=O)[C@](C)(Cc1ccc(O)cc1)NC(=O)[C@@H](CCC(=O)O)NC(=O)[C@@H](NC(=O)[C@H](Cc1ccccc1)NC(=O)[C@H](CCCCNC(=O)COCCOCCNC(=O)COCCOCCNC(=O)CC[C@H](NC(=O)CCCCCCCCCCCCC(=O)O)C(=O)O)NC(=O)C(C)(C)NC(=O)[C@H](CCC(N)=O)NC(=O)[C@H](C)NC(=O)[C@H](CCCCNC(=O)COCCOCCNC(=O)COCCOCCNC(=O)CC[C@H](NC(=O)CCCCCCCCCCCCC(=O)O)C(=O)O)NC(=O)[C@H](CCCN)NC(=O)[C@H](CC(=O)O)NC(=O)[C@H](CC(C)C)NC(=O)[C@](C)(CC(C)C)NC(=O)[C@@H](NC(=O)[C@H](CO)NC(=O)[C@H](Cc1ccncc1)NC(=O)[C@H](CC(=O)O)NC(=O)[C@H](CO)NC(=O)[C@@H](NC(=O)[C@](C)(Cc1ccccc1F)NC(=O)[C@@H](NC(=O)CNC(=O)[C@H](CCC(=O)O)NC(=O)C(C)(C)NC(=O)[C@@H](N)Cc1ccc(O)cc1)[C@@H](C)O)[C@@H](C)O)[C@@H](C)CC)[C@@H](C)CC)C(=O)N[C@@H](CCC(=O)O)C(=O)NCC(=O)NCC(=O)N1CCC[C@H]1C(=O)N[C@@H](CO)C(=O)N[C@@H](CO)C(=O)NCC(=O)N[C@@H](C)C(=O)N1CCC[C@H]1C(=O)N1CCC[C@H]1C(=O)N1CCC[C@H]1C(=O)N[C@@H](CO)C(N)=O` [Example 15], the Ki in experiment [1] is above 966 nM; in experiment [2] it was 0.0629 nM. Also, the EC50 at hGIPR (setting [6]) was 0.573 nM; at hGIPR (setting [5]), 0.0133 nM; at hGCGR (setting [6]), above 9950 nM; on hGCGR (setting [5]), above 9950 nM; at hGLP-1R (setting [6]) it was 24.8 nM. The Emax at hGIPR (setting [3]) was determined as 94.4 ± 1.01%; on hGIPR (setting [4]) it was 95.9 ± 2.34%; at hGLP-1R (setting [7]) it was 93.2 ± 3.68%; on hGLP-1R (setting [8]) it was 94.3 ± 4.44%.
In the case of `CC[C@H](C)[C@H](NC(=O)[C@H](CC(C)C)NC(=O)[C@](C)(Cc1ccc(O)cc1)NC(=O)[C@@H](CCC(=O)O)NC(=O)[C@@H](NC(=O)[C@H](Cc1ccccc1)NC(=O)[C@H](CCC(=O)O)NC(=O)C(C)(C)NC(=O)[C@H](CCC(N)=O)NC(=O)[C@H](C)NC(=O)[C@H](CCCCNC(=O)[C@@H](N)CCCCNC(=O)COCCOCCNC(=O)COCCOCCNC(=O)CC[C@H](NC(=O)CCCCCCCCCCCCC(=O)O)C(=O)O)NC(=O)[C@H](CCCN)NC(=O)[C@H](CC(=O)O)NC(=O)[C@H](CC(C)C)NC(=O)[C@](C)(CC(C)C)NC(=O)[C@@H](NC(=O)[C@H](CO)NC(=O)[C@H](Cc1ccncc1)NC(=O)[C@H](CC(=O)O)NC(=O)[C@H](CO)NC(=O)[C@@H](NC(=O)[C@](C)(Cc1ccccc1F)NC(=O)[C@@H](NC(=O)CNC(=O)[C@H](CCC(=O)O)NC(=O)C(C)(C)NC(=O)[C@@H](N)Cc1ccc(O)cc1)[C@@H](C)O)[C@@H](C)O)[C@@H](C)CC)[C@@H](C)CC)C(=O)N[C@@H](CCC(=O)O)C(=O)NCC(=O)NCC(=O)N[C@@H](CCCCNC(=O)[C@@H](N)CCCCNC(=O)COCCOCCNC(=O)COCCOCCNC(=O)CC[C@H](NC(=O)CCCCCCCCCCCCC(=O)O)C(=O)O)C(=O)N[C@@H](CO)C(=O)N[C@@H](CO)C(=O)NCC(=O)N[C@@H](C)C(=O)N1CCC[C@H]1C(=O)N1CCC[C@H]1C(=O)N1CCC[C@H]1C(=O)N[C@@H](CO)C(N)=O` [Example 37], the Ki in experiment [1] is above 957 nM; in experiment [2], 0.171 nM. The EC50 at hGIPR (setting [6]) was 0.306 nM; at hGIPR (setting [5]) it was 0.0211 nM; at hGCGR (setting [6]), above 9950 nM; on hGCGR (setting [5]), above 9950 nM; on hGLP-1R (setting [6]) it was 17 nM. In addition, the Emax at hGIPR (setting [3]) was 88.5 ± 0.188%; on hGIPR (setting [4]) it was 91.2 ± 3.67%.

One may read the Ki as a measure of affinity in units of concentration, obtained from inhibition or displacement. The term Emax denotes the maximal effect, on the per cent scale that the assay sets. Usually EC50 stands for the concentration needed to bring the measured effect to its halfway point.
